Patent publication US5053070A, “Pyrimidine derivatives, preparation processes thereof, herbicide containing the same, and herbicidal compositions containing the same along with other active ingredient” (Mitsui Toatsu Chemicals, Incorporated, priority 1988, dated 1991)
Values after ≈ are worked out from the molar mass of the structure shown.

Experiments:
[1] = system: large crabgrass; assay: Upland foliar application test (Test 3); format: in vivo; settings: 30 g ai/a, foliar spray at 2-3 leaves, 30th day
Description: (§1) Resin-made 1/10000-are pots were filled with the soil of an upland field. Redroot pigweed, common lambsquarters, foxtail meadow, johnsongrass, barnyardgrass, green foxtail, large crabgrass, soybean, peanut and cotton were separately seeded and were allowed to germinate in a green house. When each plant grew to the stage of 2-3 leaves, an emulsion formulated from a predetermined amount of each test compound in a similar manner to the method described in Formulation Example 11 was diluted with water to a predetermined dilution rate and then sprayed at an application rate equal to 5 l per are onto the foliage of each plant by means of a pressure-operated ULV (ultra low volume) sprayer. Influence to the crops and weeds were observed on the 30th day after the spray of the herbicides. The results are shown in Table 4 in which the degree of damages of each test plant and the degree of injury to each crop are shown in a similar manner to Test 2.

[2] = system: green foxtail; assay: Upland foliar application test (Test 3); format: in vivo; settings: 30 g ai/a, foliar spray at 2-3 leaves, 30th day
Description: as §1

[3] = system: barnyardgrass; assay: Upland foliar application test (Test 3); format: in vivo; settings: 30 g ai/a, foliar spray at 2-3 leaves, 30th day
Description: as §1

[4] = system: johnsongrass; assay: Upland foliar application test (Test 3); format: in vivo; settings: 30 g ai/a, foliar spray at 2-3 leaves, 30th day
Description: as §1

[5] = system: foxtail meadow; assay: Upland foliar application test (Test 3); format: in vivo; settings: 30 g ai/a, foliar spray at 2-3 leaves, 30th day
Description: as §1

[6] = system: common lambsquarters; assay: Upland foliar application test (Test 3); format: in vivo; settings: 30 g ai/a, foliar spray at 2-3 leaves, 30th day
Description: as §1

[7] = system: redroot pigweed; assay: Upland foliar application test (Test 3); format: in vivo; settings: 30 g ai/a, foliar spray at 2-3 leaves, 30th day
Description: as §1

[8] = system: narrowleaf waterplantain; assay: Petri dish test (Test 6); format: in vivo; settings: 336 h; seeds on filter paper, 25° C., 14 days; read-out: I80 (ppm)
Description: A filter paper was placed in each glass-made Petri dish having a diameter of 9 cm. A compound dissolved in acetone was added in a predetermined amount. The filter paper was then dried in air to remove acetone. Seeds of narrowleaf waterplantain were placed on the filter paper and 10 ml of water were poured into the Petri dish. The seeds were allowed to grow at 25° C. in a bright room. Fourteen days later, the state of growth of narrowleaf water-plantain was observed.
In the table, the degree of damages of the test plant was determined by comparing the state of growth of the plant with that of the plant in an untreated group and is shown in accordance with the following standard: […]

[9] = system: ALS (acetolactate syntase); assay: ALS enzyme assay (Test 1); format: biochemical, pea; settings: 1,000 ppm (0.5 mg/0.5 ml)
Description: (§2) To determine the selectivity in enzyme level between crops and weeds, and ALS enzyme assay was conducted using pea as a representative of broadleaf crops and barnyardgrass as a representative of narrowleaf weeds.
(§3) After seeds of pea and barnyardgrass were allowed to germinate at 25° C. for 8-14 days in a dark place, partially-purified suspensions (Suspensions A) of acetolactate syntase were separately obtained from seedlings in accordance with the method described in the literature, Plant Physiology, 75, 827-831.
(§4) In a test tube, 0.5 mg of one of test compounds was weighed, followed by the addition of 0.15 ml of a 20 mM K2 HPO4 solution and 0.25 ml of a reaction substrate medium which consisted of 40 mM of K2 HPO4, 40 mM of sodium pyruvate, 1 mM of TPP, 1 mM of MgCl2 and 20 μM of FAD so that 0.4 ml of a reaction solution (Solution B) was prepared. Added to 0.4 ml of Solution B was 0.1 ml of suspension A. After the resultant mixture was shaken for 1 hour in a thermostat water bath controlled at 30° C., 50 μl of 6N sulfuric acid were added to terminate the reaction.
(§5) Next, the reaction-terminated liquid mixture was transferred into a thermostat water bath controlled at 60° C. and was heated for 15 minutes. Thereafter, 0.5 ml of a 0.5% creatine solution and 0.5 ml of a 5% alkaline α-naphthol solution were added, and the resultant mixture was maintained at 60° C. for 15 minutes. As a result, the test solution developed a pink-red color. After the above operation, the absorbance of the test solution at 525 nm was measured by a spectrophotometer (Absorbance 1 of Test Compound).
(§6) On the other hand, the absorbance (Absorbance 2 of Blank) of a solution obtained by subjecting a portion of Solution B, said portion being free of the test compound, to the above operation and the absorbance (Absorbance 3 of sulfuric acid terminated) of another solution obtained by subjecting another portion of Solution B, said portion containing 50 μl of 6N sulfuric acid as a test compound, were measured at the same time. Based on the values of the respective measurements, the enzyme assay at 1,000 ppm (0.5 mg/0.5 ml) of each compound was determined. [formula]

[10] = system: rice; assay: Treatment of soil under submerged condition, post-emergence (Test 5), injury; format: in vivo; settings: 30 g ai/a granule, 30 days later
Description: 1/5000-are Wagner pots were filled with soil. Seeds or tubers of barnyardgrass, Monochoria vaginalis, bulrush, Sagittaria pygmaea, Cyperus serroylnus and Eleocharis kuroguwai were seeded or planted under submerged condition. Two pairs of rice seedlings (2-3 leaf stage), which had been reared in advance, were transplanted to each pot and were allowed to grow in a green house. Each pair consisted of two rice seedlings. When the barnyardgrass grew to two-leaf stage, each pot was treated with a granule which had been prepared by processing a predetermined amount of the test composition in accordance with a similar method to the method described in Formulation Example 9. The state of emergence of weeds and the state of injury of rice were observed 30 days later.
In the table, the degrees of damages of the test plants and the degrees of injury of the rice are shown in a similar manner to Example 2.

[11] = system: soybean; assay: Upland soil application test (Test 2), crop injury; format: in vivo; settings: 30 g ai/a, soil spray before emergence, 30 days later
Description: (§7) Resin-made 1/2500-are pots were filled with the soil of an upland field. After they were fertilized, soybean, peanut and cotton were seeded and 2-3 cm soil covering was applied. Seeds of redroot pigweed, common lambsquarters, barnyardgrass, green foxtail, large crabgrass, foxtail meadow and johnsongrass had been uniformly mixed with the soil. They were allowed to germinate in a green house. One day later (before emergence of weeds), a wettable powder prepared from a predetermined amount of each test compound in a similar manner to the method described in Formulation Example 1 was diluted with water and then sprayed evenly at an application rate equal to 10 l per are onto the surface of the soil by means of a pressure-operated ULV (ultra low volume) sprayer. Influence to the crops and weeds were observed 30 days later. The results are shown in Table 3, in which the degree of damages of each test plant and the degree of injury to each crop were determined by comparing the air-dried weights of the test plant and crop with those of the corresponding plant and crop in untreated pots and are shown in accordance with the following standard: […]

[12] = system: peanut; assay: Upland soil application test (Test 2), crop injury; format: in vivo; settings: 30 g ai/a, soil spray before emergence, 30 days later
Description: as §7

[13] = system: cotton; assay: Upland soil application test (Test 2), crop injury; format: in vivo; settings: 30 g ai/a, soil spray before emergence, 30 days later
Description: as §7

[14] = system: ALS (acetolactate syntase); assay: ALS enzyme assay (Test 1); format: biochemical, barnyardgrass; settings: 1,000 ppm (0.5 mg/0.5 ml)
Description: as §2, §3, §4, §5, §6

Inhibitory activity (%) Pea [9] | Inhibitory activity (%) Barnyardgrass [14] | Structure (SMILES) | Herbicidal effects Large crabgrass [1] | Herbicidal effects Green foxtail [2] | Herbicidal effects Barnyardgrass [3] | Herbicidal effects Johnsongrass [4] | Herbicidal effects Foxtail meadow [5] | Herbicidal effects Common lambsquarters [6] | Herbicidal effects Redroot pigweed [7] | IC80 [8] | Injury Rice [10] | Injury Soybean [11] | Injury Peanut [12] | Injury Cotton [13]
0% | 23% | COc1cc(OC)nc(Oc2ccccc2C=NOCc2ccccc2)n1 [Compound No. 15] | 4 (6-10 (Severe damages)) | 5 (0-5 (Death)) | 5 (0-5 (Death)) | 5 (0-5 (Death)) | 4 (6-10 (Severe damages)) | 5 (0-5 (Death)) | 5 (0-5 (Death)) | 100 µg/mL (≈ 274 µM) | 1 (71-90 (Slight damages)) | 0 (91-100 (No damages)) | 0 (91-100 (No damages)) | 0 (91-100 (No damages))
0% | 92% | COc1cc(OC)nc(Oc2ccccc2C=NOCC=Cc2ccc(C)cc2)n1 [compound 36] | 5 (0-5 (Death)) | 5 (0-5 (Death)) | 5 (0-5 (Death)) | 5 (0-5 (Death)) | 5 (0-5 (Death)) | 4 (6-10 (Severe damages)) | 4 (6-10 (Severe damages)) | 4 µg/mL (≈ 9.87 µM) | 1 (71-90 (Slight damages)) | 0 (91-100 (No damages)) | 0 (91-100 (No damages)) | 0 (91-100 (No damages))
0% | 85% | C#CCON=Cc1ccccc1Oc1nc(OC)cc(OC)n1 [Compound No. 13, 0-(2-propynyl)-2-(4,6-dimethoxy-2-pyrimidinyloxy)benzaldoxime] | 5 (0-5 (Death)) | 5 (0-5 (Death)) | 5 (0-5 (Death)) | 5 (0-5 (Death)) | 5 (0-5 (Death)) | 4 (6-10 (Severe damages)) | 5 (0-5 (Death)) | 5 µg/mL (≈ 16 µM) | 0 (91-100 (No damages)) | 0 (91-100 (No damages)) | 0 (91-100 (No damages)) | 0 (91-100 (No damages))
0% | 91% | COc1cc(OC)nc(Oc2ccccc2C=NOCC=Cc2cccc(C)c2)n1 [Compound No. 34, 0-(3-methylcinnamyl)-2-(4,6-dimethoxy-2-pyrimidinyloxy)benzaldoxime] | 4 (6-10 (Severe damages)) | 5 (0-5 (Death)) | 5 (0-5 (Death)) | 5 (0-5 (Death)) | 5 (0-5 (Death)) | 4 (6-10 (Severe damages)) | 4 (6-10 (Severe damages)) | 2 µg/mL (≈ 4.93 µM) | 1 (71-90 (Slight damages)) | 0 (91-100 (No damages)) | 0 (91-100 (No damages)) | 0 (91-100 (No damages))
0% | 93% | CCc1ccc(C=CCON=Cc2ccccc2Oc2nc(OC)cc(OC)n2)cc1 [compound 37] | 5 (0-5 (Death)) | 5 (0-5 (Death)) | 4 (6-10 (Severe damages)) | 5 (0-5 (Death)) | 5 (0-5 (Death)) | 4 (6-10 (Severe damages)) | 4 (6-10 (Severe damages)) | 2 µg/mL (≈ 4.77 µM) | 1 (71-90 (Slight damages)) | 0 (91-100 (No damages)) | 0 (91-100 (No damages)) | 0 (91-100 (No damages))
0% | 17% | COc1cc(OC)nc(Oc2ccccc2C=NOC(C)C)n1 [compound 6] | 3 (11-40 (Medium damages)) | 5 (0-5 (Death)) | 4 (6-10 (Severe damages)) | 5 (0-5 (Death)) | 5 (0-5 (Death)) | 4 (6-10 (Severe damages)) | 4 (6-10 (Severe damages)) | 40 µg/mL (≈ 126 µM) | 0 (91-100 (No damages)) | 0 (91-100 (No damages)) | 0 (91-100 (No damages)) | 0 (91-100 (No damages))
0% | 14% | COc1cc(OC)nc(Oc2ccccc2C=NOCc2ccc(Cl)c(Cl)c2)n1 [compound 18] | 3 (11-40 (Medium damages)) | 5 (0-5 (Death)) | 4 (6-10 (Severe damages)) | 5 (0-5 (Death)) | 4 (6-10 (Severe damages)) | 3 (11-40 (Medium damages)) | 4 (6-10 (Severe damages)) | 67 µg/mL (≈ 154 µM) | 0 (91-100 (No damages)) | 0 (91-100 (No damages)) | – | 0 (91-100 (No damages))
